Source: patent publication EP4268823A1, “COMPOUND FOR TREATING NEUROINFLAMMATION” (Universitätsklinikum Hamburg-Eppendorf, priority 2022, dated 2023)

Target: T1, G9a (Homo sapiens, UniProt Q96KQ7)
T1 construct: H3K9me2 immunostaining and quantification in response to ferroptosis induction with erastin in hiPSC neurons; endogenous in cells; host or cells: neurons differentiated from human iPSCs (ZIPi013-B)
T1 sequence (Q96KQ7 1-1210): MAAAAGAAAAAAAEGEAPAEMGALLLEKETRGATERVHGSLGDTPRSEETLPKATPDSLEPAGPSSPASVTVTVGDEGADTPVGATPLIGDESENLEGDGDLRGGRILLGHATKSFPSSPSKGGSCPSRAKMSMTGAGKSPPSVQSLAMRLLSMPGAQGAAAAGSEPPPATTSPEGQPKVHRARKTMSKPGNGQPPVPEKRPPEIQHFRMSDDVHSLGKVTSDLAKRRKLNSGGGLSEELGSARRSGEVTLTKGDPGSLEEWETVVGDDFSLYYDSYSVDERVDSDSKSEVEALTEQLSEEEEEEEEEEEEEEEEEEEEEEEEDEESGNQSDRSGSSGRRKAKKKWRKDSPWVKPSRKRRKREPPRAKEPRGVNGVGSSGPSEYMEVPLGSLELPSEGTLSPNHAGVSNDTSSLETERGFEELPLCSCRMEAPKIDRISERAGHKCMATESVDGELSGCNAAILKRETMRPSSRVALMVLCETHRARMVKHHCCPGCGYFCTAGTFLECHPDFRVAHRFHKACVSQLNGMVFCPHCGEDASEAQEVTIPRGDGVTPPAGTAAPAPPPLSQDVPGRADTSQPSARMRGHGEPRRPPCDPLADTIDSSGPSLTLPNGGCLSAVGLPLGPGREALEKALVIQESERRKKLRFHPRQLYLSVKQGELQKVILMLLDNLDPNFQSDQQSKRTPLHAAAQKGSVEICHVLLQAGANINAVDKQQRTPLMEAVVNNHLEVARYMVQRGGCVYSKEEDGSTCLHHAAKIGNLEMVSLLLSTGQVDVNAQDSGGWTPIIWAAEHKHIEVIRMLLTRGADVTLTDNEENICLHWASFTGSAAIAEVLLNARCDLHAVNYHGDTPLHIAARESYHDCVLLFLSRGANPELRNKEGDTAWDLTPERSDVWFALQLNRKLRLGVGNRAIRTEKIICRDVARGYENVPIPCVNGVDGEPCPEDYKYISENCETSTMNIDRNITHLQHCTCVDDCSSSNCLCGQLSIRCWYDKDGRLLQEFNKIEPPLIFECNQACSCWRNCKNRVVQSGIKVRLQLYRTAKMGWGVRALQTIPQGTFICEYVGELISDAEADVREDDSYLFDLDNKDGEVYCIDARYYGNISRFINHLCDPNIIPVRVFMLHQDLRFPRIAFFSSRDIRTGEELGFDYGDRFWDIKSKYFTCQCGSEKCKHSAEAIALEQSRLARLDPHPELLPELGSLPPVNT
Assay: H3K9me2 immunostaining in hiPSC neurons after erastin
Format: cell-based
Details: erastin + UNC0642
Description: Human iPSCs (ZIPi013-B) (83) were maintained under feeder-free conditions on Matrigel (Corning)-coated plates in mTeSR1 medium (Stem Cell Technologies, cat. no. 85850). For neuronal induction, iPSCs were dissociated with Accutase and seeded at a density of 3 × 10^6 cells per well on AggreWell800 plates (10,000 cells per embryoid body (EB), Stem Cell Technologies) in SMADi Neural Induction Medium (SMADi NIM, Stem Cell Technologies, cat. no. 08582) supplemented with […] (Stem Cell Technologies, cat. no. 72302). On day 6, EBs were harvested and cultivated on Matrigel-coated plates in SMADi NIM for 12 days. Newly formed neural rosettes were manually picked and cultured for another 4 days. In order to release neural precursor cells (NPCs), neural rosettes were dissociated with Accutase and were maintained for several passages at high density in Neural Progenitor Medium (Stem Cell Technologies, cat. no. 05833) on Matrigel-coated plates. HiPSC-derived NPCs were differentiated into neurons as previously described (84, 85) with some modifications. Briefly, NPCs were seeded at a density of 1 × 10^5 cells per cm^2 in Neural Progenitor Medium onto Matrigel-coated plates. […]
Immunocytochemistry was performed as described previously (15). […] Immunostainings were analyzed with a Zeiss LSM 700 confocal microscope.

SMILES: COc1cc2c(NC3CCN(C(C)C)CC3)nc(N3CCC(F)(F)CC3)nc2cc1OCCCN1CCCC1 [UNC0642, 2-(4,4-difluoropiperidin-1-yl)-6-methoxy-N-[1-(propan-2-yl)piperidin-4-yl]-7-[3-(pyrrolidin-1-yl)propoxy]quinazolin-4-amine]
- increase of H3K9me2 levels in response to erastin-induced ferroptosis: rescued
